The target of one experiment is T1, Human PD-L1/PD-1 (Homo sapiens, UniProt Q9NZQ7).
T1 construct: made in house; host or cells: HEK293T
The experiment can be described thus: HTRF PD-1-Ig/PD-L1-His binding assay (human PD-L1). The following applies: cluster symbol; read-out: HTRF IC50 cluster. A digest of the protocol:
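HTRF read-out: Eu cryptate anti-Ig mAb 1 nM final, APC anti-His mAb 20 nM final, added over the binding reaction. Proteins were PD-1-Ig and PD-L1-His ectodomain fusions. Buffer was dPBS, 0.1% BSA, 0.05% Tween-20.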

For experiment [1], the target named is T2, LK35.2-hPD-L1 cells / PE-labeled PD-1-Ig (Homo sapiens, UniProt Q9NZQ7).
T2 construct: expressed in transfected cells; host or cells: LK35.2 mouse B cell line
T2 sequence (Q9NZQ7 19-290): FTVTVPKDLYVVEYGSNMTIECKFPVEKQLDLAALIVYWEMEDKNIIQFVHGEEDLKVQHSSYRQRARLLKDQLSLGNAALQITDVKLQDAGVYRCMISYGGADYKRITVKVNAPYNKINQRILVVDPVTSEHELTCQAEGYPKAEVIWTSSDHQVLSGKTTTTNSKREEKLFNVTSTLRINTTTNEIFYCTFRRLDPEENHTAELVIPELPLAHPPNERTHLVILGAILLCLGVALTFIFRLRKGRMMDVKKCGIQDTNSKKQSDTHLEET
In words: LK35.2-hPD-L1 cell binding high-content screening assay. Format: cell-based. The following applies: cluster symbol, read-out: CBA IC50 cluster. A digest of the protocol:
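Fluorescent PD-1-Ig binding to PD-L1-expressing LK35.2 cells, imaged after washing. Conditions: 1 nM PE-PD-1-Ig, 37 °C, 1 h, RPMI with 10% fetal calf serum.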

The mark [2] stands for this setting: cell binding assay, cell line not given.
Setting [3] is: cell line of CBA not given (LK35.2-hPD-L1 or 293T-hPD-L1).

pIC50: −log10 of the molar value. Read-outs that look alike come from different tables or passages of the source. Starred links: 1 amine or outer side, 2 acyl side, 3 side chain; linkers in the order of their positions; H or OH if unused. Positions of bridges follow the written chain, without caps; N, C: chain ends. Non-standard residues stand in square brackets, D forms with d. Residues, ends and D or L forms follow the SMILES beside them. ξ: configuration not given here. Phe(3,4,5-F3) = N[C@@H](Cc1cc(F)c(F)c(F)c1)C(=O)O; Phe(3,5-F2) = N[C@@H](Cc1cc(F)cc(F)c1)C(=O)O; Phe(3,4-Me2) = Cc1ccc(C[C@H](N)C(=O)O)cc1C; X1 = C[C@@H]1C[C@H](C(=O)[*:2])N([*:1])C1; Pro(4R-NH2) = N[C@H]1CN[C@H](C(=O)O)C1; d(cisHyp) = O=C(O)[C@H]1C[C@@H](O)CN1; Bta = N[C@@H](Cc1csc2ccccc12)C(=O)O; Hyp = O=C(O)[C@@H]1C[C@@H](O)CN1; NMeF = CN[C@@H](Cc1ccccc1)C(=O)O; NMeNle = CCCC[C@H](NC)C(=O)O; NMeS = CN[C@@H](CO)C(=O)O; dPip = O=C(O)[C@H]1CCCCN1; NMeA = CN[C@@H](C)C(=O)O; Orn = NCCC[C@H](N)C(=O)O; ξC = NC(CS)C(=O)O; Sar = CNCC(=O)O Some results are limits rather than exact numbers.

T1 sequence (Q9NZQ7 with tags, fused parts or gaps): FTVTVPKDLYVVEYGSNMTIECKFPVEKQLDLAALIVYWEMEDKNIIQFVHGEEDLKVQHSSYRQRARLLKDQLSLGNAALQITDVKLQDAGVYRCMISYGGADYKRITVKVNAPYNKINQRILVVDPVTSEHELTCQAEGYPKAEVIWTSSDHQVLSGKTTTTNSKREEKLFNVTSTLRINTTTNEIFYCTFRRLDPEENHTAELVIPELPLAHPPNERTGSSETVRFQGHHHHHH

Consider `CCCC[C@H]1C(=O)N(C)[C@@H](CCCC)C(=O)N[C@@H](CCCNC(=N)N)C(=O)N[C@H](C(=O)NCC(N)=O)CSCC(=O)N[C@@H](Cc2cc(F)cc(F)c2)C(=O)N(C)[C@@H](C)C(=O)N[C@@H](CC(N)=O)C(=O)N2CCC[C@H]2C(=O)N[C@@H](Cc2cnc[nH]2)C(=O)N[C@@H](CC(C)C)C(=O)N2C[C@H](O)C[C@H]2C(=O)N[C@@H](Cc2c[nH]c3ccccc23)C(=O)N[C@@H](CO)C(=O)N[C@@H](Cc2c[nH]c3ccccc23)C(=O)N1C` [Example 7051] ({CH2CO}-[Phe(3,5-F2)][NMeA]NPHL[Hyp]WSW[NMeNle][NMeNle]RCG-NH2; thioether N-14), for which the pIC50 is 7.52 to 8.17 on Human PD-L1/PD-1 and 7.14 to 8.32 in experiment [1] (setting [2]).

As for `CCCC[C@H]1C(=O)N(C)[C@@H](CCCC)C(=O)N[C@@H](CCCNC(=N)N)C(=O)N[C@H](C(=O)NCC(N)=O)CSCC(=O)N[C@@H](Cc2ccc(C)c(C)c2)C(=O)N(C)[C@@H](C)C(=O)N[C@@H](CC(N)=O)C(=O)N2CCC[C@H]2C(=O)N[C@@H](Cc2cnc[nH]2)C(=O)N[C@@H](CC(C)C)C(=O)N2CCC[C@H]2C(=O)N[C@@H](Cc2c[nH]c3ccccc23)C(=O)N[C@@H](CO)C(=O)N[C@@H](Cc2c[nH]c3ccccc23)C(=O)N1C` [Example 7015] ({CH2CO}-[Phe(3,4-Me2)][NMeA]NPHLPWSW[NMeNle][NMeNle]RCG-NH2; thioether N-14), the pIC50 at Human PD-L1/PD-1 was 7.52 to 8.17; in experiment [1] (setting [2]) it was 7.14 to 8.32.

On to `CCCC[C@H]1C(=O)N[C@H](CC(=O)O)C(=O)N[C@@H](CC(=O)O)C(=O)N[C@@H](C(C)C)C(=O)N(C)[C@@H](Cc2ccccc2)C(=O)N[C@@H](Cc2ccc(O)cc2)C(=O)N(C)CC(=O)N[C@@H](Cc2c[nH]c3ccccc23)C(=O)N[C@@H](Cc2ccc(O)cc2)C(=O)N[C@@H](CC(C)C)C(=O)N[C@H](C(=O)NCC(N)=O)CSCC(=O)N[C@@H](Cc2ccccc2)C(=O)N(C)[C@@H](Cc2ccccc2)C(=O)N1C` [Example 3552] (HELM PEPTIDE1{[O=C(C[*:3])[*:2]].F.[meF].[CCCC[C@@H](C(=O)[*:2])N(C)[*:1]].[dD].D.V.[meF].Y.[Sar].W.Y.L.C.G.[am]}$PEPTIDE1,PEPTIDE1,1:R3-14:R3$$$V2.0), for which the pIC50 was 8.17 to 9.41 on Human PD-L1/PD-1 and 7.14 to 8.32 in experiment [1] (setting [2]).

As to `CCCC[C@H]1C(=O)N2C[C@H](O)C[C@@H]2C(=O)N2C[C@H](N)C[C@H]2C(=O)N[C@@H](C(C)C)C(=O)N(C)[C@@H](Cc2ccccc2)C(=O)N[C@@H](Cc2ccc(O)cc2)C(=O)N2CCCC[C@@H]2C(=O)N[C@@H](Cc2c[nH]c3ccccc23)C(=O)N[C@@H](Cc2ccc(O)cc2)C(=O)N[C@@H](CC(C)C)C(=O)N[C@H](C(=O)NCC(N)=O)CSCC(=O)N[C@@H](Cc2cc(F)c(F)c(F)c2)C(=O)N(C)[C@@H](Cc2ccccc2)C(=O)N1C` [Example 3196] ({CH2CO}-[Phe(3,4,5-F3)][NMeF][NMeNle][d(cisHyp)][Pro(4R-NH2)]V[NMeF]Y[dPip]WYLCG-NH2; thioether N-13), the results for the pIC50 (on Human PD-L1/PD-1; in experiment [1] (setting [3])) were 8.17 to 9.41 and 8.33 to 9.80, respectively.

As to `CCCC[C@H]1C(=O)N2C[C@H](C)C[C@@H]2C(=O)N[C@@H](CC(=O)O)C(=O)N[C@@H](C(C)C)C(=O)N(C)[C@@H](Cc2ccccc2)C(=O)N[C@@H](Cc2ccc(O)cc2)C(=O)N(C)CC(=O)N[C@@H](Cc2c[nH]c3ccccc23)C(=O)N[C@@H](Cc2ccc(O)cc2)C(=O)N[C@@H](CC(C)C)C(=O)N[C@H](C(=O)NCC(N)=O)CSCC(=O)N[C@@H](Cc2ccccc2)C(=O)N(C)[C@@H](Cc2ccccc2)C(=O)N1C` [Example 3580] ({CH2CO}-F[NMeF][NMeNle][X1]DV[NMeF]Y[Sar]WYLCG-NH2; thioether N-13), the pIC50 was 8.17 to 9.41 on Human PD-L1/PD-1 and 8.33 to 9.80 in experiment [1] (setting [2]).

As to `CCCC[C@H]1C(=O)N(C)[C@@H](COCC)C(=O)N[C@@H](CCCNC(=N)N)C(=O)NC(C(=O)NCC(N)=O)CSCC(=O)N[C@@H](Cc2ccc(O)cc2)C(=O)N(C)[C@@H](C)C(=O)N[C@@H](CC(N)=O)C(=O)N2CCC[C@H]2C(=O)N[C@@H](Cc2cnc[nH]2)C(=O)N[C@@H](CC(C)C)C(=O)N2C[C@H](O)C[C@H]2C(=O)N[C@@H](Cc2c[nH]c3ccccc23)C(=O)N[C@@H](CO)C(=O)N[C@@H](Cc2csc3ccccc23)C(=O)N1C` (some centres unmarked) [Example 9042] ({CH2CO}-Y[NMeA]NPHL[Hyp]WS[Bta][NMeNle][NMeS](Et)R[ξC]G-NH2; thioether N-14), the results for the pIC50 (on Human PD-L1/PD-1; in experiment [1] (setting [2])) were 8.17 to 9.41 and 8.33 to 9.80, respectively.

`CCCC[C@H]1C(=O)N(C)[C@@H](CCCC)C(=O)N[C@@H](CCCNC(=N)N)C(=O)N[C@H](C(=O)NCC(N)=O)CSCC(=O)N[C@@H](Cc2ccccc2)C(=O)N(C)[C@@H](C)C(=O)N[C@@H](CC(N)=O)C(=O)N2CCC[C@H]2C(=O)N[C@@H](CCCN)C(=O)N[C@@H](CC(C)C)C(=O)N(C)CC(=O)N[C@@H](Cc2c[nH]c3ccccc23)C(=O)N[C@@H](CO)C(=O)N[C@@H](Cc2c[nH]c3ccccc23)C(=O)N1C` [Example 1059] ({CH2CO}-F[NMeA]NP[Orn]L[Sar]WSW[NMeNle][NMeNle]RCG-NH2; thioether N-14): the results for the pIC50 (on Human PD-L1/PD-1; in experiment [1] (setting [3])) were less than 7.52 and less than 7.13, respectively.

The values are drawn from US9850283B2, “Macrocyclic inhibitors of the PD-1/PD-L1 and CD80(B7-1)/PD-L1 protein/protein interactions” (BRISTOL-MYERS SQUIBB COMPANY, priority 2013, dated 2017).
